target: T1, HMG-CoA reductase (Homo sapiens, UniProt P04035); experiment: HMG-CoA reductase (HMGCR) degradation in HepG2 cells by western blotting; type: cell-based; conditions: treated for 18 hours, ratio of HMG-CoA reductase to GAPDH, read-out: DC50
T1 construct: endogenous in cells; host or cells: HepG2 (Korea Cell Line Bank)
T1 sequence (P04035 1-888): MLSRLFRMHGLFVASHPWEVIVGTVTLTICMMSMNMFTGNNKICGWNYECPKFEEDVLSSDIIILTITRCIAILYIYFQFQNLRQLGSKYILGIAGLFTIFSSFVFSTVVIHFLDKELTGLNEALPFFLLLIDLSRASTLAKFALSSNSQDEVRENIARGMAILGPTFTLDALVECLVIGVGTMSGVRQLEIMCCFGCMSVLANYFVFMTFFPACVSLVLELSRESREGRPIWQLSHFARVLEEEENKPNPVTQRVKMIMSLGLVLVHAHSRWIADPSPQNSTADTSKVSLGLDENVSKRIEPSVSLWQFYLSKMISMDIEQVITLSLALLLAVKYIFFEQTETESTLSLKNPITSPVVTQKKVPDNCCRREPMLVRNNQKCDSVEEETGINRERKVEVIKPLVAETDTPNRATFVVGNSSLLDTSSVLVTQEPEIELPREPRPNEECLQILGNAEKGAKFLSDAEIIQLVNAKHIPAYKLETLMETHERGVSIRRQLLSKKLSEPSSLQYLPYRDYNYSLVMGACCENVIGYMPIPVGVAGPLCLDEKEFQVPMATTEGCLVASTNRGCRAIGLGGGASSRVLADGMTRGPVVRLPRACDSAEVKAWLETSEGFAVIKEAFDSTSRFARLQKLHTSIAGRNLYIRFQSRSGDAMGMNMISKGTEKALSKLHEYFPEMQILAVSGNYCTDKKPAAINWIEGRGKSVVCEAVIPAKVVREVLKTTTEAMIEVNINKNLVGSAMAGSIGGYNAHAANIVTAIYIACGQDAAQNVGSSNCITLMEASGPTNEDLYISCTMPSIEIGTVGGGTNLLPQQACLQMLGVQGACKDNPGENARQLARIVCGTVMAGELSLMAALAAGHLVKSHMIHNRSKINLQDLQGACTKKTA
In short: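 Western blot read-out: HMGCR protein probed (1:500, 16 hours at 4° C) alongside GAPDH loading control on 15 μg BCA-normalised RIPA lysates. Lysates came from HepG2 cells (P105–P110) exposed for 18 hours to a 10-point, three-fold series starting at 3 μM.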

**Q.** Which DC50 does the source give for CN[C@@H](C)C(=O)N[C@H](C(=O)N1CCC[C@@H]1c1nc(C(=O)c2cccc(OCCOCCOCCNC(=O)O[C@H]3C[C@@H](C)C=C4C=C[C@H](C)[C@H](CC[C@@H]5C[C@@H](O)CC(=O)O5)[C@H]43)c2)cs1)C1CCCCC1 [Compound 34, (1S,3R,7S,8S,8aR)-8-(2-((2R,4R)-4-hydroxy-6-oxotetrahydro-2H-pyran-2-yl)ethyl)-3,7-dimethyl-1,2,3,7,8,8a-hexahydronaphthalen-1-yl (2-(2-(2-(3-(2-((R)-1-((S)-2-cyclohexyl-2-((S)-2-(methylamino)propanamido)acetyl)pyrrolidin-2-yl)thiazole-4-carbonyl)phenoxy)ethoxy)ethoxy)ethyl)carbamate] here?
**A.** The DC50 was over 500 nM.

**Q.** For CN[C@@H](C)C(=O)N[C@H](C(=O)N1CCC[C@@H]1c1nc(C(=O)c2cccc(OCCOCCOCCNC(=O)O[C@H]3C[C@@H](C)C=C4C=C[C@H](C)[C@H](CC[C@@H]5C[C@@H](O[Si](C)(C)C(C)(C)C)CC(=O)O5)[C@H]43)c2)cs1)C1CCCCC1 [Compound 35, (1S,3R,7S,8S,8aR)-8-(2-((2R,4R)-4-((tert-butyldimethylsilyl)oxy)-6-oxotetrahydro-2H-pyran-2-yl)ethyl)-3,7-dimethyl-1,2,3,7,8,8a-hexahydronaphthalen-1-yl (2-(2-(2-(3-(2-((R)-1-((S)-2-cyclohexyl-2-((S)-2-(methylamino)propanamido)acetyl)pyrrolidin-2-yl)thiazole-4-carbonyl)phenoxy)ethoxy)ethoxy)ethyl)carbamate], which DC50 is on record?
**A.** The DC50 was over 500 nM.

**Q.** Which DC50 does the source give for CN[C@@H](C)C(=O)N[C@H](C(=O)N1CCC[C@H]1c1nc(C(=O)c2cccc(OCCOCCOCCNC(=O)O[C@H]3C[C@@H](C)C=C4C=C[C@H](C)[C@H](CC[C@@H]5C[C@@H](O[Si](C)(C)C(C)(C)C)CC(=O)O5)[C@H]43)c2)cs1)C1CCCCC1 [Compound 36, (1S,3R,7S,8S,8aR)-8-(2-((2R,4R)-4-((tert-butyldimethylsilyl)oxy)-6-oxotetrahydro-2H-pyran-2-yl)ethyl)-3,7-dimethyl-1,2,3,7,8,8a-hexahydronaphthalen-1-yl (2-(2-(2-(3-(2-((S)-1-((S)-2-cyclohexyl-2-((S)-2-(methylamino)propanamido)acetyl)pyrrolidin-2-yl)thiazole-4-carbonyl)phenoxy)ethoxy)ethoxy)ethyl)carbamate] here?
**A.** The DC50 was under 50 nM.

**Q.** CN[C@@H](C)C(=O)N[C@H](C(=O)N1CCC[C@H]1c1nc(C(=O)c2cccc(OCCOCCOCCOCCNC(=O)O[C@H]3C[C@@H](C)C=C4C=C[C@H](C)[C@H](CC[C@@H]5C[C@@H](O[Si](C)(C)C(C)(C)C)CC(=O)O5)[C@H]43)c2)cs1)C1CCCCC1 [Compound 37, (1S,3R,7S,8S,8aR)-8-(2-((2R,4R)-4-((tert-butyldimethylsilyl)oxy)-6-oxotetrahydro-2H-pyran-2-yl)ethyl)-3,7-dimethyl-1,2,3,7,8,8a-hexahydronaphthalen-1-yl (2-(2-(2-(2-(3-(2-((S)-1-((S)-2-cyclohexyl-2-((S)-2-(methylamino)propanamido)acetyl)pyrrolidin-2-yl)thiazole-4-carbonyl)phenoxy)ethoxy)ethoxy)ethoxy)ethyl)carbamate] was tested. Which DC50 did it give?
**A.** The DC50 was under 50 nM.

**Q.** CN[C@@H](C)C(=O)N[C@H](C(=O)N1CCC[C@H]1c1nc(C(=O)c2cccc(OCCOCCOCCOCCOCCNC(=O)O[C@H]3C[C@@H](C)C=C4C=C[C@H](C)[C@H](CC[C@@H]5C[C@@H](O[Si](C)(C)C(C)(C)C)CC(=O)O5)[C@H]43)c2)cs1)C1CCCCC1 [Compound 38, (1S,3R,7S,8S,8aR)-8-(2-((2R,4R)-4-((tert-butyldimethylsilyl)oxy)-6-oxotetrahydro-2H-pyran-2-yl)ethyl)-3,7-dimethyl-1,2,3,7,8,8a-hexahydronaphthalen-1-yl (14-(3-(2-((S)-1-((S)-2-cyclohexyl-2-((S)-2-(methylamino)propanamido)acetyl)pyrrolidin-2-yl)thiazole-4-carbonyl)phenoxy)-3,6,9,12-tetraoxatetradecyl)carbamate] was tested. Which DC50 did it give?
**A.** The DC50 was under 50 nM.

**Q.** How did the DC50 turn out when C[C@H]1C=C2C=C[C@H](C)[C@H](CC[C@@H]3C[C@@H](O)CC(=O)O3)[C@H]2[C@@H](OC(=O)NCCOCCOCCOCCNc2ccccc2)C1 [Compound 39, (1S,3R,7S,8S,8aR)-8-(2-((2R,4R)-4-hydroxy-6-oxotetrahydro-2H-pyran-2-yl)ethyl)-3,7-dimethyl-1,2,3,7,8,8a-hexahydronaphthalen-1-yl (2-(2-(2-(2-(phenylamino)ethoxy)ethoxy)ethoxy)ethyl)carbamate] was run?
**A.** The DC50 was over 500 nM.

**Q.** For C[C@H]1C=C2C=C[C@H](C)[C@H](CC[C@@H]3C[C@@H](O)CC(=O)O3)[C@H]2[C@@H](OC(=O)NCCOCCOCCNc2cccc3c2C(=O)N(C2CCC(=O)NC2=O)C3=O)C1 (stereo partly drawn) [Compound 40, (1S,3R,7S,8S,8aR)-8-(2-((2R,4R)-4-hydroxy-6-oxotetrahydro-2H-pyran-2-yl)ethyl)-3,7-dimethyl-1,2,3,7,8,8a-hexahydronaphthalen-1-yl (2-(2-(2-((2-(2,6-dioxopiperidin-3-yl)-1,3-dioxoisoindolin-4-yl)amino)ethoxy)ethoxy)ethyl)carbamate], which DC50 is on record?
**A.** Its DC50 is under 50 nM.

**Q.** C[C@H]1C=C2C=C[C@H](C)[C@H](CC[C@@H]3C[C@@H](O)CC(=O)O3)[C@H]2[C@@H](OC(=O)NCCOCCOCCOCCNc2cccc3c2C(=O)N(C2CCC(=O)NC2=O)C3=O)C1 (stereo partly drawn) [Compound 41, (1S,3R,7S,8S,8aR)-8-(2-((2R,4R)-4-hydroxy-6-oxotetrahydro-2H-pyran-2-yl)ethyl)-3,7-dimethyl-1,2,3,7,8,8a-hexahydronaphthalen-1-yl (2-(2-(2-(2-((2-(2,6-dioxopiperidin-3-yl)-1,3-dioxoisoindolin-4-yl)amino)ethoxy)ethoxy)ethoxy)ethyl)carbamate] was tested. Which DC50 did it give?
**A.** Its DC50 is under 50 nM.

**Q.** With C[C@H]1C=C2C=C[C@H](C)[C@H](CC[C@@H]3C[C@@H](O)CC(=O)O3)[C@H]2[C@@H](OC(=O)NCCOCCOCCOCCOCCNc2cccc3c2C(=O)N(C2CCC(=O)NC2=O)C3=O)C1 (stereo partly drawn) [Compound 42, (1S,3R,7S,8S,8aR)-8-(2-((2R,4R)-4-hydroxy-6-oxotetrahydro-2H-pyran-2-yl)ethyl)-3,7-dimethyl-1,2,3,7,8,8a-hexahydronaphthalen-1-yl (14-((2-(2,6-dioxopiperidin-3-yl)-1,3-dioxoisoindolin-4-yl)amino)-3,6,9,12-tetraoxatetradecyl)carbamate] as the compound, how does the DC50 read?
**A.** The DC50 was under 50 nM.

**Q.** Which DC50 does the source give for C[C@H]1C=C2C=C[C@H](C)[C@H](CC[C@@H]3C[C@@H](O)CC(=O)O3)[C@H]2[C@@H](OC(=O)NCCOCCOCCOCCOCCOCCNc2cccc3c2C(=O)N(C2CCC(=O)NC2=O)C3=O)C1 (stereo partly drawn) [Compound 43, (1S,3R,7S,8S,8aR)-8-(2-((2R,4R)-4-hydroxy-6-oxotetrahydro-2H-pyran-2-yl)ethyl)-3,7-dimethyl-1,2,3,7,8,8a-hexahydronaphthalen-1-yl (17-((2-(2,6-dioxopiperidin-3-yl)-1,3-dioxoisoindolin-4-yl)amino)-3,6,9,12,15-pentaoxaheptadecyl)carbamate] here?
**A.** Its DC50 is under 50 nM.

**Q.** For C[C@H]1C=C2C=C[C@H](C)[C@H](CC[C@@H]3C[C@@H](O)CC(=O)O3)[C@H]2[C@@H](OC(=O)NCCOCCOCCOCCOCCOCCOCCNc2cccc3c2C(=O)N(C2CCC(=O)NC2=O)C3=O)C1 (stereo partly drawn) [Compound 44, (1S,3R,7S,8S,8aR)-8-(2-((2R,4R)-4-hydroxy-6-oxotetrahydro-2H-pyran-2-yl)ethyl)-3,7-dimethyl-1,2,3,7,8,8a-hexahydronaphthalen-1-yl (20-((2-(2,6-dioxopiperidin-3-yl)-1,3-dioxoisoindolin-4-yl)amino)-3,6,9,12,15,18-hexaoxaicosyl)carbamate], which DC50 is on record?
**A.** The DC50 was under 50 nM.

**Q.** With C[C@H]1C=C2C=C[C@H](C)[C@H](CC[C@@H]3C[C@@H](O[Si](C)(C)C(C)(C)C)CC(=O)O3)[C@H]2[C@@H](OC(=O)NCCOCCOCCOCCNc2ccccc2)C1 [Compound 45, (1S,3R,7S,8S,8aR)-8-(2-((2R,4R)-4-((tert-butyldimethylsilyl)oxy)-6-oxotetrahydro-2H-pyran-2-yl)ethyl)-3,7-dimethyl-1,2,3,7,8,8a-hexahydronaphthalen-1-yl (2-(2-(2-(2-(phenylamino)ethoxy)ethoxy)ethoxy)ethyl)carbamate] as the compound, how does the DC50 read?
**A.** The DC50 was over 500 nM.

From patent US12479840B2, “HMG-CoA reductase degradation inducing compound” (Uppthera, priority 2020, dated 2025)
